Where two headings read alike, the source gives them in different places.
Key:
[1] = tested on: p34cdc2/cyclin B (CDK1/cyclin B); experiment: Inhibition of the p34cdc2/cyclin B activity (32P transfer from ATP to histone H1); assay type: biochemical, starfish or human recombinant
Procedure: The protein Histone H1 (type III-S) is obtained from Sigma. […] The reaction medium is prepared according to the following composition: 10 μl of enzymatic preparation are added to 5 μl of Histone H1 (5 mg/ml in buffer C) and to 7 μl of buffer C and mixed. 17.5 μl of the mixture are distributed in the tubes immediately before the test. 3 μl of inhibiting agent to be tested are added to each tube. The reaction is begun by the addition of 5 μl of the ATP solution, followed by incubating for 15 minutes at 30° C. The reaction is halted by the addition of 0.5 volumes of Laemli 3× buffer. […] The analysis and the quantification of the phosphorylation of the Histone H1 are carried out using an Instant-Imager device (Packard).

HCT-8 cells = conditions: HCT-8, 48 hours
Procedure: The percentage of mitotic cells and of cells having apoptotic nuclear bodies is determined by examination and counting of a sample of at least 300 cells distributed over several points of the slide using a fluorescent microscope.

HCT-116 cells [2] = experiment: cells; conditions: Homo sapiens, HCT-116, 96 h, read-out: HCT-116 IC50 (inhibition of proliferation)
Procedure: The HCT-116 cells are cultured as a layer in a culture flask in Dulbecco's medium comprising L-glutamine 2 mM, penicillin 200 U/ml, streptomycin 2 μg/ml, with the addition of 10% of heat-inactivated foetal calf serum.
The incorporation of the dye in the cell, which reflects cell growth, is evaluated by spectrophotometry at a wavelength of 540 nm for each sample using a Dynatech MR5000 reading device.
For each compound concentration tested, the results are expressed as percentage of inhibition of cell growth and are calculated from the untreated control and from the cell-free (blank) culture medium according to the following formula:
(Value compound−value blank/value cell control−value blank)×100.

HCT-116 cells [3] = conditions: HCT-116, 1 μg/ml
Procedure: The HCT-116 cells are seeded in Nunc 6-well dishes.
The cells are treated with 30 μM BrDU for 30 minutes and then trypsinized. After fixing the cells in 1% paraformaldehyde for 16 hours, the latter are digested in pepsin/hydrochloric acid and then rinsed in PBS 1×. Immunolabelling is carried out with an anti-BrDU primary antibody (Becton Dickinson) and a GAM-FITC secondary antibody (Coulter). The DNA is subsequently labelled with propidium iodide in PBS comprising 1 mg/ml of boiled RNAse. This method makes it possible to count the cells in the G1, S and G2M phases.

C6 = experiment: cells; conditions: Rattus norvegicus, C6, 288 h, read-out: IC50 inhibition of clonogenicity
Procedure: (§1) The Calc18 human tumour line is a gift from Professor G. Riou (Institut Gustave Roussy, Villejuif, France).
(§2) The cells in exponential growth phase are trypsinized, washed in PBS 1× and diluted to a final concentration of 5000 cells/ml in complete medium. The test products (in a volume of 50 μl) are added to 2.5 ml of suspension. […] The mixture is then immediately poured into Petri dishes and left at +4° C. for 5 minutes to solidify the agar.
(§3) The results are expressed as percentage of inhibition of the clonogenicity with respect to controls. The IC50 is determined graphically from the mean results determined for each concentration of compound.

HLE = experiment: cells; conditions: Homo sapiens, 288 h, read-out: IC50 inhibition of clonogenicity
Procedure: as §1, §2, §3

Calc18 = experiment: cells; conditions: Homo sapiens, 288 h, read-out: IC50 inhibition of clonogenicity
Procedure: as §1, §2, §3

PC-14 = experiment: cells; conditions: Homo sapiens, PC-14, 288 h, read-out: IC50 inhibition of clonogenicity
Procedure: as §1, §2, §3

HT-29 = experiment: cells; conditions: Homo sapiens, HT-29, 288 h, read-out: IC50 inhibition of clonogenicity
Procedure: as §1, §2, §3

HCT-116 = experiment: cells; conditions: Homo sapiens, HCT-116, 288 h, read-out: IC50 inhibition of clonogenicity
Procedure: as §1, §2, §3

PC-3 = experiment: cells; conditions: Homo sapiens, PC-3, 288 h, read-out: IC50 inhibition of clonogenicity
Procedure: as §1, §2, §3

HCT-8 = experiment: cells; conditions: Homo sapiens, HCT-8, 288 h, read-out: IC50 inhibition of clonogenicity
Procedure: as §1, §2, §3

Lovo = experiment: cells; conditions: Homo sapiens, 288 h, read-out: IC50 inhibition of clonogenicity
Procedure: as §1, §2, §3

HLF = experiment: cells; conditions: Homo sapiens, 288 h, read-out: IC50 inhibition of clonogenicity
Procedure: as §1, §2, §3

## CC(=O)Nc1ccc2c(c1)C(=Cc1c[nH]cn1)C(=O)N2 [Compound 4, 1,3-dihydro-3-(imidazol-4-ylmethylene)-5-(acetylamino)-2H-indolin-2-one]
[1]; 10 μM
  CDK1 % inhibition at 10 μM: 100%

## Cc1nc[nH]c1C=C1C(=O)Nc2ccc(C(=O)O)cc21 [Compound 5-11]
[1]; 10 μM
  CDK1 % inhibition at 10 μM: 100%

## O=C1Nc2ccc([N+](=O)[O-])cc2C1=Cc1ccc[nH]1 [Compound 5-6]
[1]; 10 μM
  CDK1 % inhibition at 10 μM: 91%

## CNC(=O)c1ccc2c(c1)C(=Cc1c[nH]cn1)C(=O)N2 [Compound 3, 1,3-dihydro-3-(imidazol-4-ylmethylene)-5-(N-methylcarboxamido)-2H-indolin-2-one]
[1]; 10 μM
  CDK1 % inhibition at 10 μM: 100%

## O=C1Nc2ccc(Br)cc2C1=Cc1cnc[nH]1 [Compound 5-3]
[1]; 10 μM
  CDK1 % inhibition at 10 μM: 100%

## O=C1Nc2ccc(-c3cccnc3)cc2C1=Cc1cnc[nH]1 [Compound 1, 1,3-dihydro-3-(imidazol-4-ylmethylene)-5-(pyrid-3-yl)-2H-indolin-2-one]
[1]
  CDK1 % inhibition at 10 μM: 99%
HCT-8 cells; 0.1 μg/ml
  Apoptotic cells (%): 8.5%
  Apoptotic cells Factor/control: 3.5
  Mitotic cells (%): 2.8%
  Mitotic cells Factor/control: 0.4
HCT-8 cells; 1 μg/ml
  Apoptotic cells (%): 16%
  Apoptotic cells Factor/control: 6.6
  Mitotic cells (%): 0.7%
  Mitotic cells Factor/control: 0.1
HCT-8 cells; 10 μg/ml
  Apoptotic cells (%): 42.5%
  Apoptotic cells Factor/control: 17.7
  Mitotic cells (%): 0.4%
  Mitotic cells Factor/control: 0.06
HCT-116 cells [2]
  IC50: 280 nM
HCT-116 cells [3]; contact time 4 h
  Cells in G1 phase (%): 62.2%
  Cells in G2-M phase (%): 16.4%
  Cells in S phase (%): 20.1%
HCT-116 cells [3]; contact time 24 h
  Cells in G1 phase (%): 26.8%
  Cells in G2-M phase (%): 31.4%
  Cells in S phase (%): 39.5%
HCT-116 cells [3]; contact time 48 h
  Cells in G1 phase (%): 7.9%
  Cells in G2-M phase (%): 58.9%
  Cells in S phase (%): 30.9%
HCT-116 cells [3]; contact time 72 h
  Cells in G1 phase (%): 7.8%
  Cells in S phase (%): 5.1%
C6
  IC50: 10800 nM
HLE
  IC50: 1200 nM
Calc18
  IC50: 1060 nM
PC-14
  IC50: 1100 nM
HT-29
  IC50: 1420 nM
HCT-116
  IC50: 280 nM
PC-3
  IC50: 190 nM
HCT-8
  IC50: 1040 nM
Lovo
  IC50: 900 nM
HLF
  IC50: 1100 nM

## Cc1nc[nH]c1C=C1C(=O)Nc2ccc(S(N)(=O)=O)cc21 [Compound 5-12]
[1]; 10 μM
  CDK1 % inhibition at 10 μM: 100%

## Cc1nc[nH]c1C=C1C(=O)Nc2ccc(-c3cccnc3)cc21 [Compound 5-10]
[1]; 10 μM
  CDK1 % inhibition at 10 μM: 100%

## O=C1Nc2ccc(C(=O)c3cccs3)cc2C1=Cc1cnc[nH]1 [Compound 5-7]
[1]; 10 μM
  CDK1 % inhibition at 10 μM: 100%

## O=C1Nc2ccc([N+](=O)[O-])cc2C1=Cc1cnc[nH]1 [Compound 5-8]
[1]; 10 μM
  CDK1 % inhibition at 10 μM: 81%
